Square brackets hold non-standard residues; d marks the D form. Peptide text beside a SMILES is read from it. βAla = NCCC(=O)O
Experiments:
[1] = system: MRSA (clin. isolate Liberec); assay: Biofilm formation on the surface of a bone cement implant in femur heads; format: cell-based, Staphylococcus aureus; conditions: two days, cement without peptide 8,8x10^3
Protocol: (§6) The resulting elastic paste is placed into a 2 ml plastic syringe (without needle) and pressed into the infected holes in the spongy part of the bone, where it polymerizes and hardens. For comparison, other similarly infected holes are filled with cement containing only an antibiotic or antimycotic agent. For comparison, a Vancogenx® cement (Tecresa S. p. A., Italy) is used, made from a mixture of a powdered polymer component containing vancomycin and gentamicin. The mixture in an amount of 125 mg is mixed with liquid monomer (50-60 µl) and then pressed into the openings as described above. In another embodiment, the cements are applied to uninfected holes, allowed to harden, and then microbes are pipetted into the hole excavated between implants. From there they penetrate through bone tissue and settle on the implants with consequent formation of biofilms.
(§7) After two days, implants are removed with metal spikes and tweezers, mechanically cleaned from debris of bone tissue, and washed four times with physiological saline (0.5 ml) in plastic tubes to remove any residual planktonic microbes or bone cells from their surface. The implants in closed tubes with 0.4 ml saline are then sonicated four times for 3 min with occasional shaking. The of microbial biofilm on the surface of the implant is thus disrupted and microbes are loosed into the physiological saline. […]

human red blood cells = assay: Determination of haemolytic activity; format: cell-based; conditions: human red blood cells (5% v/v), 1 h at 37 °C; concentration for lysis of 50% of erythrocytes
Protocol: The peptides in the concentrations 2-400 µmol.1^-1 were incubated with the suspension of human red blood cells (5% v/v) for 1 h at 37 °C in a physiological solution at a final volume of 0.2 ml. The samples were then centrifuged for 5 min at 250 g. The absorbance of the supernatant was determined at 540 nm. 0.2% (v/v) TRITON X100 was used as a control for 100% haemolysis. Haemolytic activity is expressed as the peptide concentration required for lysis of 50% of human erythrocytes in the assay (LC50). Table 2. Antimicrobial and haemolytic activity of I up to XIII peptides and tetracycline.

P. aeruginosa 5482 [2] = assay: Biofilm formation on the surface of a bone cement implant in femur heads; format: cell-based; conditions: two days, cement without peptide 6x10^5
Protocol: (§8) The resulting elastic paste is placed into a 2 ml plastic syringe (without needle) and pressed into the infected holes in the spongy part of the bone, where it polymerizes and hardens. For comparison, other similarly infected holes are filled with cement containing only an antibiotic or antimycotic agent. […] The mixture in an amount of 125 mg is mixed with liquid monomer (50-60 µl) and then pressed into the openings as described above. In another embodiment, the cements are applied to uninfected holes, allowed to harden, and then microbes are pipetted into the hole excavated between implants. From there they penetrate through bone tissue and settle on the implants with consequent formation of biofilms.
(§9) After two days, implants are removed with metal spikes and tweezers, mechanically cleaned from debris of bone tissue, and washed four times with physiological saline (0.5 ml) in plastic tubes to remove any residual planktonic microbes or bone cells from their surface. The implants in closed tubes with 0.4 ml saline are then sonicated four times for 3 min with occasional shaking. The of microbial biofilm on the surface of the implant is thus disrupted and microbes are loosed into the physiological saline. The resulting suspension is subsequently diluted using the tenfold serial dilution for culturing on agar. […]

[3] = system: S.e. (clin. isolate Motol); format: cell-based, Staphylococcus epidermidis; conditions: 37° C for 20 h
Protocol: (§1) Gram-positive bacteria (Bacillus subtilis, Staphylococcus aureus, Staphylococcus epidermidis and Enterococcus faecalis), Gram-negative bacteria (Escherichia coli and Pseudomonas aeruginosa) and the yeast (Candida albicans) were grown to exponential phase and then were diluted with fresh medium. BHI medium (Oxoid, Great Britain) was used for Enterococcus faecalis; YPD medium containing yeast extract, peptone and glucose was used for Candida albicans and LB medium (Sigma, Czech Republic) was used for the remaining microorganisms. Then the microorganisms were added to the solutions of the tested antimicrobial peptides in LB medium in multi-well plates, so that the final peptide concentration it the wells was in the range of 0.5 to 100 µmοl.1^-1. The plates were incubated at 37° C for 20 h while being continuously shaken in a Bioscreen C (Oy Growth Curves AB Ltd., Helsinki, Finland). Absorbance was measured at 540 nm every 15 min. Antimicrobial activity (Table 2) was determined as a quantitative minimum inhibitory concentration (MIC) by observing bacterial growth in the presence of different concentrations of tested peptides. In the experiments, ca 10^5 CFU of bacteria or candida per well were used. Tetracycline in a concentration range of 0.5 - 100 µmol.1^-1 was used as a standard.
(§2) Clinical isolates of bacteria were obtained from University Hospital in Motol, Prague, Czech Republic and from Liberec Regional Hospital, Czech Republic. Methicillin resistant Staphylococcus aureus (MRSA) 6271 and Pseudomonas aeruginosa 5482 were from the Czech National Collection of Type Cultures, the National Institute of Public Health, Prague, Czech Republic. Other bacteria were from the Czech Collection of Microorganisms, Brno, Czech Republic. Candida albicans came from the Faculty of Medicine, Palacky University, Olomouc, Czech Republic. Candida tropicalis ATCC 750 and Candida glabrata DSY 565 were obtained from the Institute of Physiology, Academy of Sciences of the Czech Republic.

MRSA 6271 [4] = assay: Biofilm formation on the surface of a bone cement implant in femur heads; format: cell-based, Staphylococcus aureus; conditions: two days, cement without peptide 1.1x10^6
Protocol: as §6
(§10) After two days, implants are removed with metal spikes and tweezers, mechanically cleaned from debris of bone tissue, and washed four times with physiological saline (0.5 ml) in plastic tubes to remove any residual planktonic microbes or bone cells from their surface. The implants in closed tubes with 0.4 ml saline are then sonicated four times for 3 min with occasional shaking. The of microbial biofilm on the surface of the implant is thus disrupted and microbes are loosed into the physiological saline. The resulting suspension is subsequently diluted using the tenfold serial dilution for culturing on agar.
(§11) Evaluation of the effect of antimicrobial peptides on the formation of microbial biofilm on the surface of the implant made of the bone cement.

[5] = system: Candida albicans (clin. isolate Olomouc); assay: as above; format: cell-based; conditions: two days, cement without peptide 6.0x10^3
Protocol: as §6, §10, §11

Candida albicans = format: cell-based; conditions: C.a.; 37° C for 20 h
Protocol: as §1, §2

Bacillus subtilis = format: cell-based; conditions: B.s.; 37° C for 20 h
Protocol: as §1, §2

Escherichia coli = format: cell-based; conditions: E.c.; 37° C for 20 h
Protocol: as §1, §2

[6] = system: MRSA (clin. isolate Liberec); assay: Induced osteomyelitis model in femur heads: effect of peptides released from carrier on infection in the bone graft; format: cell-based, Staphylococcus aureus; conditions: ChronOS (200 mg); 10 mg, separate holes; two days; carrier without peptide 3,4x10^7
Protocol: (§3) 3-4 holes of a diameter of 5 mm and a depth of 10 mm are drilled with a surgical spoon into a femur head under sterile conditions (spongy part of the bone in the resection site). Thereafter, this bone graft is put into a beaker of appropriate size and lined with sterile gauze squares. The gauze is moistened with sterile physiological saline to prevent drying of the bone. Then, suspension of multiplied microbes in an appropriate medium (50-100 µl) at a concentration of 10^7 to 10^9 CFU is sequentially applied to the prepared holes in the bone graft and allowed to incubate for 1-2 days. […] Beaker with the infected bone graft is covered with a sterile Petri dish. During the experiment, induced osteomyelitis models are kept protected from light at room temperature.
(§4) After the incubation, the infected holes in the bone are filled with a mixture of the local carrier, and a peptide selected from the series of peptides of formulae I to XIII or their specific enantiomers (Figure 1). For comparison, one of the holes is filled with the local carrier without peptide, or the carrier filled with antibiotic (vancomycin or gentamicin). A commercially available two-component material supplied by Synthes (Synthes GmbH, Switzerland) under the name ChronOS Inject was used as the carrier. Its solid component comprises a mixture of calcium phosphates CaHPO4.2H2O and Ca3(PO4)2 and additives, the liquid component is 0.5% (vol./vol.) solution of hyaluronic acid.
(§5) After two days, the filling is thoroughly removed with a surgical spoon and empty holes are wiped with moistened sterile cotton swab, which is then extracted into 400 µl physiological saline. The extract is diluted in a tenfold serial dilution and each diluted suspension is cultured on agar in Petri dishes; the culture is evaluated on the following day. […] The result of the peptide effect is also compared with the result of the effect of antibiotics. In some cases, microbiological examination of the bone tissue taken with a surgical spoon from a deeper area of the drilled holes is performed. […] Table 3. Evaluation of the effect of antimicrobial peptides released from the carrier on an infection in the bone graft. Effect of antimicrobial activity is expressed in the number of CFU (colony-forming units) in the infected hole after swabbing.

[7] = system: MRSA (clin. isolate Motol); assay: Biofilm formation on the surface of a bone cement implant in femur heads; format: cell-based, Staphylococcus aureus; conditions: two days, cement without peptide 2,6x10^6
Protocol: as §6, §7

MRSA 6271 [8] = format: cell-based, Staphylococcus aureus; conditions: 37° C for 20 h
Protocol: as §1, §2

[9] = system: MRSA (clin. isolate Liberec); format: cell-based, Staphylococcus aureus; conditions: 37° C for 20 h
Protocol: as §1, §2

[10] = system: MRSA (clin. isolate Motol); format: cell-based, Staphylococcus aureus; conditions: 37° C for 20 h
Protocol: as §1, §2

[11] = system: S. aureus (clin. isolate Liberec); assay: Induced osteomyelitis model in femur heads: effect of peptides released from carrier on infection in the bone graft; format: cell-based; conditions: ChronOS (200 mg); 10 mg, separate holes; two days; carrier without peptide 3,9x10^6
Protocol: as §3, §4, §5

P.a. 5482 = format: cell-based, Pseudomonas aeruginosa; conditions: 37° C for 20 h
Protocol: as §1, §2

[12] = system: P.a. (clin. isolate Liberec); format: cell-based, Pseudomonas aeruginosa; conditions: 37° C for 20 h
Protocol: as §1, §2

[13] = system: S. epidermidis (clin. isolate Motol); assay: Biofilm formation on the surface of a bone cement implant in femur heads; format: cell-based; conditions: two days, cement without peptide 4.0x10^6
Protocol: as §8, §9

[14] = system: E.f. (clin. isolate Motol); format: cell-based, Enterococcus faecalis; conditions: 37° C for 20 h
Protocol: as §1, §2

[15] = system: MRSA (clin. isolate Motol); assay: Induced osteomyelitis model in femur heads: effect of peptides released from carrier on infection in the bone graft; format: cell-based, Staphylococcus aureus; conditions: ChronOS (200 mg); 10 mg; two days; carrier without peptide 4,8x10^6
Protocol: as §3, §4, §5

P. aeruginosa 5482 [16] = assay: as above; format: cell-based; conditions: ChronOS (200 mg); V (9 mg); two days; carrier without peptide 1,0x10^9
Protocol: as §3, §4, §5

| SMILES | Hemolytic activity LC50 (human red blood cells) | Antimicrobial activity MIC [3] | Antimicrobial activity MIC (Candida albicans) | Antimicrobial activity MIC (Bacillus subtilis) | Antimicrobial activity MIC (Escherichia coli) | Antimicrobial activity MIC (MRSA 6271 [8]) | Antimicrobial activity MIC [9] | Antimicrobial activity MIC [10] | Antimicrobial activity MIC (P.a. 5482) | Antimicrobial activity MIC [12] | Antimicrobial activity MIC [14] | further results |
| --- | --- | --- | --- | --- | --- | --- | --- | --- | --- | --- | --- | --- |
| CC[C@H](C)[C@H](NC(=O)[C@H](CCCCN)NC(=O)[C@H](CCCCN)NC(=O)[C@H](CC(C)C)NC(=O)[C@H](CC(C)C)NC(=O)[C@H](CCCCN)NC(=O)[C@H](CCSC)NC(=O)[C@H](Cc1c[nH]c2ccccc12)NC(=O)[C@@H](N)CCCCN)C(=O)N[C@@H](CC(C)C)C(=O)N[C@@H](CCCCN)C(N)=O [I] (H-KWMKLLKKILK-NH2) | >400 µM | 3,2 µmol.l^-1 | 9,5 µmol.l^-1 | 2,3 µmol.l^-1 | 12,7 µmol.l^-1 | 13,5 µmol.l^-1 | 8,0 µmol.l^-1 | 17,7 µmol.l^-1 | 2,9 µmol.l^-1 | 5,8 µmol.l^-1 | >100 µmol/L | CFU/implant [1]: 0 CFU/implant; CFU/implant (P. aeruginosa 5482 [2]): 7.0x10^2 CFU/implant; CFU/implant (MRSA 6271 [4]): 0 CFU/implant; CFU/implant [5]: 6.8x10^1 CFU/implant; CFU/hole [6]: 2,3x10^5 / 2,3x10^5 CFU/hole; CFU/implant [7]: 0 CFU/implant; CFU/hole [11]: 1,3x10^4 CFU/hole; CFU/implant [13]: 1,1x10^3 CFU/implant |
| CC[C@H](C)[C@H](NC(=O)[C@H](CCCCN)NC(=O)[C@H](CCCCN)NC(=O)[C@H](CC(C)C)NC(=O)[C@H](CC(C)C)NC(=O)[C@H](CCCCN)NC(=O)[C@H](CCSC)NC(=O)[C@H](Cc1c[nH]c2ccccc12)NC(=O)[C@H](CCCCN)NC(=O)CCN)C(=O)N[C@@H](CC(C)C)C(=O)N[C@@H](CCCCN)C(N)=O [Peptide V] (H-[βAla]KWMKLLKKILK-NH2) | 270 µM | 2,8 µmol.l^-1 | 11,3 µmol.l^-1 | 1,8 µmol.l^-1 | 6,8 µmol.l^-1 | 11,3 µmol.l^-1 | 5,7 µmol.l^-1 | 10,0 µmol.l^-1 | 2,8 µmol.l^-1 | 7,0 µmol.l^-1 | 59,0 µmol.l^-1 | CFU/hole [15]: 4,0 CFU/hole; CFU/hole (P. aeruginosa 5482 [16]): 2,0x10^5 CFU/hole |
